pIC50: −log10 of the molar value. Like-named read-outs stand apart in the source and are kept apart here.
Assays:
[1] = molecular target: wild-type un-phosphorylated FGFR4 (Homo sapiens, UniProt P22455); experiment: FGFR Enzymatic Assay (FRET peptide phosphorylation), FGFR4
Description: (§1) The inhibitor potency of the exemplified compounds was determined in an enzyme discontinuous assay that measures peptide phosphorylation using FRET measurements to detect product formation. Inhibitors were serially diluted in DMSO and a volume of 0.2 μL was transferred to the wells of a 384-well plate. […] Appropriate controls (enzyme blank and enzyme with no inhibitor) were included on the plate. […] The 10 μL/well reaction concentration of the peptide substrate was 500 nM whereas the ATP concentration was maintained near or below the ATP Km. The ATP Km values were pre-determined in a separate series of experiments. The reaction plate was incubated at 25° C. for 1 hr and the reactions were ended with the addition of 5 μL/well of quench solution (50 mM Tris, 150 mM NaCl, 0.5 mg/mL BSA, pH 7.8; 45 mM EDTA, 600 nM staurosporin, with Perkin Elmer Lance Reagents at 3.75 nM Eu-antibody PY20 and 180 nM APC-Streptavidin). The plate was allowed to equilibrate for ˜10 minutes at ambient temperature before scanning on a PheraStar plate reader (BMG Labtech) instrument.
(§2) Either GraphPad prism or XLfit was used to analyze the data. The IC50 values were derived by fitting the data to a four parameter logistic equation producing a sigmoidal dose-response curve with a variable Hill coefficient. Prism equation: Y=Bottom+(Top-Bottom)/(1+10^((Log IC50-X)*Hill slope)); XLfit equation: Y=(A+((B−A)/(1+((X/C)^D)))) where X is the logarithm of inhibitor concentration and Y is the response.
(§3) GraphPad prism3 was used to analyze the data. The IC50 values were derived by fitting the data to the equation for a sigmoidal dose-response with a variable slope. Y=Bottom+(Top-Bottom)/(1+10^((Log IC50-X)*Hill Slope)) where X is the logarithm of concentration and Y is the response.
(§4) The data in Table 1 was measured in wild-type un-phosphorylated FGFR1, FGFR2, FGFR3, and FGFR4 proteins.

[2] = molecular target: wild-type un-phosphorylated FGFR3 (Homo sapiens, UniProt P22607); experiment: FGFR Enzymatic Assay (FRET peptide phosphorylation), FGFR3
[3] = molecular target: wild-type un-phosphorylated FGFR1 (Homo sapiens, UniProt P11362); experiment: FGFR Enzymatic Assay (FRET peptide phosphorylation), FGFR1; conditions: pre-incubated for 4 hours
Chain of wild-type un-phosphorylated FGFR1 (P11362 22-822): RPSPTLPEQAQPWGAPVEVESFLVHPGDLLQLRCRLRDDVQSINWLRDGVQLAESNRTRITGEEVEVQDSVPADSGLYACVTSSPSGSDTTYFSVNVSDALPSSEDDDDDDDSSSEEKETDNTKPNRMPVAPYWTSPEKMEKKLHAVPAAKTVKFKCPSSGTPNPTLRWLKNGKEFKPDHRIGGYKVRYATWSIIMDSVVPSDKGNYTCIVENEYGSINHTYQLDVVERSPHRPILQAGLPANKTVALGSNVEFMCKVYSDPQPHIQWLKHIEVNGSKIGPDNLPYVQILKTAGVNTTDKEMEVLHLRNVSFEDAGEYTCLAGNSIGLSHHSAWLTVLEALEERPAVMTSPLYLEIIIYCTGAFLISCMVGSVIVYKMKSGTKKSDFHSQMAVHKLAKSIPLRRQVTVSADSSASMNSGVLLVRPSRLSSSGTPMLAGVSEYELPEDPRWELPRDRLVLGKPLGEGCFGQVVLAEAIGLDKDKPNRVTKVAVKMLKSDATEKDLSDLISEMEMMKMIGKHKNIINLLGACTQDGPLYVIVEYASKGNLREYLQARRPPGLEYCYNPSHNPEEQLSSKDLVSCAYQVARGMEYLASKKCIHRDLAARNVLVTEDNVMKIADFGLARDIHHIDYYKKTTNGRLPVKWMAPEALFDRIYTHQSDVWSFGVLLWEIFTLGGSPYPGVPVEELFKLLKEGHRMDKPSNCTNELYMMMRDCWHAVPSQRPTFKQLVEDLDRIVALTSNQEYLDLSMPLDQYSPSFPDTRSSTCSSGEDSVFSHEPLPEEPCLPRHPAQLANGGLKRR
Description: as §1, §2, §3, §4

[4] = molecular target: wild-type un-phosphorylated FGFR2 (Homo sapiens, UniProt P21802); experiment: FGFR Enzymatic Assay (FRET peptide phosphorylation), FGFR2
Chain of wild-type un-phosphorylated FGFR2 (P21802 22-821): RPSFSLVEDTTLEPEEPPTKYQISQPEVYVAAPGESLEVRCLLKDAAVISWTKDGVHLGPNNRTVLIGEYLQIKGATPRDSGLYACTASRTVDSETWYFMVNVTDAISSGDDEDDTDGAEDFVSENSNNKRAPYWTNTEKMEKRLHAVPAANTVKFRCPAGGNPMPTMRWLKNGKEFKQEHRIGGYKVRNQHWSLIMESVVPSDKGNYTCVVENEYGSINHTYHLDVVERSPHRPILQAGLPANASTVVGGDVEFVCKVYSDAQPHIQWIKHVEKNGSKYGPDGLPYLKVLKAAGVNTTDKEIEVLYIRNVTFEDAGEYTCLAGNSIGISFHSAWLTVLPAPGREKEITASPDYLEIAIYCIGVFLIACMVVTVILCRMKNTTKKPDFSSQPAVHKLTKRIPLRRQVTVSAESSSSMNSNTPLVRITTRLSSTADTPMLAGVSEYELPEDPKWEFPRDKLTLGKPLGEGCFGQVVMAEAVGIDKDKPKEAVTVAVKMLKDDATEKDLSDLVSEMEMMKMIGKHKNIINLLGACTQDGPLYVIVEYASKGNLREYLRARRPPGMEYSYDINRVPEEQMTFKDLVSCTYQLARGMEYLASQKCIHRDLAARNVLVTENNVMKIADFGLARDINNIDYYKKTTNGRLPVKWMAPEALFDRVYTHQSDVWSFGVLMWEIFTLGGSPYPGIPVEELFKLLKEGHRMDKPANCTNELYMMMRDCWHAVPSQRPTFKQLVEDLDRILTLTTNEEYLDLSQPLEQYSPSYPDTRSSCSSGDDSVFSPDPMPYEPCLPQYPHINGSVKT

[5] = read-out: FGFR4, wild-type un-phosphorylated FGFR4, pre-incubated for 4 hours
[6] = read-out: FGFR1, wild-type un-phosphorylated FGFR1
[7] = FGFR1, wild-type un-phosphorylated FGFR1
[8] = read-out: FGFR2, wild-type un-phosphorylated FGFR2, pre-incubated for 4 hours

Chain of wild-type un-phosphorylated FGFR4 (P22455 22-802): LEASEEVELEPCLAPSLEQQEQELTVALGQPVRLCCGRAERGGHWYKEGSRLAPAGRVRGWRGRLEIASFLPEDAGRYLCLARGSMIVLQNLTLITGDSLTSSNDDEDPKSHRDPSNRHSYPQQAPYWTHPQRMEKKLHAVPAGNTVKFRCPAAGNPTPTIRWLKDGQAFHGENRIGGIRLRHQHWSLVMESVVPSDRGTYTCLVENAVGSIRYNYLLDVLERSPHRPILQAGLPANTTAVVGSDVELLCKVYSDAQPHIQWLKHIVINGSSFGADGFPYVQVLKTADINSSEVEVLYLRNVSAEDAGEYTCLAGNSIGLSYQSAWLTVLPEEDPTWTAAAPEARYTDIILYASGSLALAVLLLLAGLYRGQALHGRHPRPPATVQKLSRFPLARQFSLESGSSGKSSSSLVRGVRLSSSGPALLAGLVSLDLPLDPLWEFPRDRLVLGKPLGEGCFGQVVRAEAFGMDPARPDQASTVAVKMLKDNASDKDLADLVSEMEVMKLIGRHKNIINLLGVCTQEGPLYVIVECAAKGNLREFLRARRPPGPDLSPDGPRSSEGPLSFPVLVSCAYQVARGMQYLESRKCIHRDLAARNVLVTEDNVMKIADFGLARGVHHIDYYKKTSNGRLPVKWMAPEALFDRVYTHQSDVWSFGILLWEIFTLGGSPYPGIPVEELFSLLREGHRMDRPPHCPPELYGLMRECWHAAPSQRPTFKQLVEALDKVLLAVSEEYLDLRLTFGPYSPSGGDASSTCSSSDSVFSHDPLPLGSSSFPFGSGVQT
Chain of wild-type un-phosphorylated FGFR3 (P22607 23-806): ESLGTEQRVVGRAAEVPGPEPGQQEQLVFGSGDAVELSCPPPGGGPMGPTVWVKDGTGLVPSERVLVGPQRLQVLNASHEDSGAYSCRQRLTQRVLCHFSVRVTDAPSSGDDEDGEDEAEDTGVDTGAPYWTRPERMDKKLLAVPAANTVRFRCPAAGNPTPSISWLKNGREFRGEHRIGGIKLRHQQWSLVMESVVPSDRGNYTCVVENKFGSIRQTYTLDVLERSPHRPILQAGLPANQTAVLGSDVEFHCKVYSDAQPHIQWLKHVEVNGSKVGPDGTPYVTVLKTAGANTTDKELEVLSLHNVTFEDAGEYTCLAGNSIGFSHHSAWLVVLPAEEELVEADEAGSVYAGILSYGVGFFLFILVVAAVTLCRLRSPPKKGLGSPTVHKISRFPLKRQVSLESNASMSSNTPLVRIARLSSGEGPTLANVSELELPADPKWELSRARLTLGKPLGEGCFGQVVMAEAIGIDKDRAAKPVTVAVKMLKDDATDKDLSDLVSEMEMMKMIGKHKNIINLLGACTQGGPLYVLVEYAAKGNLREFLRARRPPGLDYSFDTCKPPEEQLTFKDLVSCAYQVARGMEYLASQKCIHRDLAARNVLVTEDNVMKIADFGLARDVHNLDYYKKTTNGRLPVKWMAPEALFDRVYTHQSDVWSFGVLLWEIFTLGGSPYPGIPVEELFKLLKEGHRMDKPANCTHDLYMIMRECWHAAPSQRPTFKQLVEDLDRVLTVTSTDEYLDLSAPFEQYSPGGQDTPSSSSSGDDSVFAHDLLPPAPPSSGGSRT

Row | Structure (SMILES) | pIC50 [1, 5] | pIC50 [2] | pIC50 [3, 6] | pIC50 [4] | pIC50 [1] | pIC50 [3, 7] | pIC50 [4, 8] | pIC50 ([2]; read-out: FGFR3, wild-type un-phosphorylated FGFR3, pre-incubated for 4 hours)
1 | COc1cc2[nH]nc(-c3ccc(C45CC4CN(C4CCOCC4)C5)nc3)c2nc1-c1cccc2c1CCC2 (stereo not shown) [Example 193, 5-(2,3-Dihydro-1H-inden-4-yl)-6-methoxy-3-(6-(3-(tetrahydro-2H-pyran-4-yl)-3-azabicyclo[3.1.0]hexan-1-yl)pyridin-3-yl)-1H-pyrazolo[4,3-b]pyridine] | 7.40 to 8.22 | > 8.22 | 7.40 to 8.22 | > 8.22 |  |  |  | 
2 | COCCN1CCN(c2ccc(-c3n[nH]c4cc(OC)c(-c5cccc(CC#N)c5C)nc34)cn2)CC1 [Example 166, 2-(3-(6-Methoxy-3-(6-(4-(2-methoxyethyl)piperazin-1-yl)pyridin-3-yl)-1H-pyrazolo[4,3-b]pyridin-5-yl)-2-methylphenyl)acetonitrile] |  | > 8.22 |  | > 8.22 | 7.00 to 7.40 | 7.00 to 7.40 |  | 
3 | COc1cc2[nH]nc(-c3cnn(C4CN(C(=O)CN5CCC(O)CC5)C4)c3)c2nc1-c1cccc2c1CCC2 [Example 121, 1-(3-(4-(5-(2,3-Dihydro-1H-inden-4-yl)-6-methoxy-1H-pyrazolo[4,3-b]pyridin-3-yl)-1H-pyrazol-1-yl)azetidin-1-yl)-2-(4-hydroxypiperidin-1-yl)ethan-1-one] |  | > 8.22 | 7.40 to 8.22 | > 8.22 | 7.00 to 7.40 |  |  | 
4 | COc1cc2[nH]nc(-c3cnn(C4CN(C(=O)CN5CCN(C)CC5)C4)c3)c2nc1-c1cccc2c1CCC2 [Example 120, 1-(3-(4-(5-(2,3-Dihydro-1H-inden-4-yl)-6-methoxy-1H-pyrazolo[4,3-b]pyridin-3-yl)-1H-pyrazol-1-yl)azetidin-1-yl)-2-(4-methylpiperazin-1-yl)ethan-1-one] |  | > 8.22 | 7.40 to 8.22 | > 8.22 | 7.00 to 7.40 |  |  | 
5 | COc1cc2[nH]nc(-c3cnn(C4CN(C(=O)N(C)C)C4)c3)c2nc1-c1cccc(C)c1F [Example 52, 3-(4-(5-(2-Fluoro-3-methylphenyl)-6-methoxy-1H-pyrazolo[4,3-b]pyridin-3-yl)-1H-pyrazol-1-yl)-N,N-dimethylazetidine-1-carboxamide] |  | > 8.22 |  |  | < 7.00 | < 7.00 | 7.40 to 8.22 | 
6 | COc1cc2[nH]nc(-c3ccc(N4CCCC4)nc3)c2nc1-c1cccc2c1CCC2 [Example 57, 5-(2,3-Dihydro-1H-inden-4-yl)-6-methoxy-3-(6-(pyrrolidin-1-yl)pyridin-3-yl)-1H-pyrazolo[4,3-b]pyridine] |  | > 8.22 |  | > 8.22 | < 7.00 | < 7.00 |  | 
7 | COc1cc2[nH]nc(-c3ccc(C4CCN(C(=O)CO)CC4)nc3)c2nc1-c1cccc(C)c1C [Example 78, 1-(4-(5-(5-(2,3-Dimethylphenyl)-6-methoxy-1H-pyrazolo[4,3-b]pyridin-3-yl)pyridin-2-yl)piperidin-1-yl)-2-hydroxyethan-1-one] |  | > 8.22 |  | > 8.22 | < 7.00 | < 7.00 |  | 
8 | COc1cc2[nH]nc(-c3ccc(N4CC(N(C)C(=O)CO)C4)nc3)c2nc1-c1cccc(C)c1C [Example 98, N-(1-(5-(5-(2,3-Dimethylphenyl)-6-methoxy-1H-pyrazolo[4,3-b]pyridin-3-yl)pyridin-2-yl)azetidin-3-yl)-2-hydroxy-N-methylacetamide] |  | > 8.22 |  | > 8.22 | < 7.00 | 7.00 to 7.40 |  | 
9 | COc1cc2[nH]nc(-c3ccc(C4CCC(NC(=O)CO)C4)nc3)c2nc1-c1cccc2c1CCC2 (stereo not shown) [Example 157, N-(3-(5-(5-(2,3-Dihydro-1H-inden-4-yl)-6-methoxy-1H-pyrazolo[4,3-b]pyridin-3-yl)pyridin-2-yl)cyclopentyl)-2-hydroxyacetamide] |  | > 8.22 |  | > 8.22 | 7.00 to 7.40 | 7.00 to 7.40 |  | 
10 | COc1cc2[nH]nc(-c3cnn(C4CN(C(=O)C(C)(C)N(C)C)C4)c3)c2nc1-c1cccc2c1CCC2 [Example 148, 1-(3-(4-(5-(2,3-Dihydro-1H-inden-4-yl)-6-methoxy-1H-pyrazolo[4,3-b]pyridin-3-yl)-1H-pyrazol-1-yl)azetidin-1-yl)-2-(dimethylamino)-2-methylpropan-1-one] |  | > 8.22 | 7.40 to 8.22 | > 8.22 | 7.00 to 7.40 |  |  | 
11 | COc1cc2[nH]nc(-c3ccc(C4CCN(C(=O)CO)C4)nc3)c2nc1-c1cccc2c1CCC2 (single isomer, unassigned) [Example 101, 1-(3-(5-(5-(2,3-Dihydro-1H-inden-4-yl)-6-methoxy-1H-pyrazolo[4,3-b]pyridin-3-yl)pyridin-2-yl)pyrrolidin-1-yl)-2-hydroxyethan-1-one] | 7.40 to 8.22 | > 8.22 | 7.40 to 8.22 | > 8.22 |  |  |  | 
12 | COc1cc2[nH]nc(-c3ccc(C4CCN(C5CCNC5=O)C4)nc3)c2nc1-c1cccc2c1CCC2 (single isomer, unassigned) [Example 105, 3-(5-(5-(2,3-Dihydro-1H-inden-4-yl)-6-methoxy-1H-pyrazolo[4,3-b]pyridin-3-yl)pyridin-2-yl)-[1,3′-bipyrrolidin]-2′-one] | 7.40 to 8.22 | > 8.22 | 7.40 to 8.22 | > 8.22 |  |  |  | 
13 | COc1cc2[nH]nc(-c3ccc(C45CC4CN(C(=O)CO)C5)nc3)c2nc1-c1cccc2c1CCC2 (stereo not shown) [Example 191A, 1-(1-(5-(5-(2,3-Dihydro-1H-inden-4-yl)-6-methoxy-1H-pyrazolo[4,3-b]pyridin-3-yl)pyridin-2-yl)-3-azabicyclo[3.1.0]hexan-3-yl)-2-hydroxyethan-1-one] | 7.40 to 8.22 | > 8.22 | 7.40 to 8.22 | > 8.22 |  |  |  | 
14 | COc1cc2[nH]nc(-c3cnn(Cc4ccncc4)c3)c2nc1-c1cccc2c1CCC2 [Example 27, 5-(2,3-Dihydro-1H-inden-4-yl)-6-methoxy-3-(1-(pyridin-4-ylmethyl)-1H-pyrazol-4-yl)-1H-pyrazolo[4,3-b]pyridine] |  |  |  | > 8.22 | 7.00 to 7.40 | 7.00 to 7.40 |  | 
15 | COc1cc2[nH]nc(-c3ccc(C45CC4CN(C(=O)CO)C5)nc3)c2nc1-c1cccc2c1CCC2 (single isomer, unassigned) [Example 191B, 1-(1-(5-(5-(2,3-Dihydro-1H-inden-4-yl)-6-methoxy-1H-pyrazolo[4,3-b]pyridin-3-yl)pyridin-2-yl)-3-azabicyclo[3.1.0]hexan-3-yl)-2-hydroxyethan-1-one] |  | > 8.22 | 7.40 to 8.22 | > 8.22 |  |  |  | 
16 | COc1cc2[nH]nc(-c3ccc(N4CCN5C[C@H](O)C[C@H]5C4)nc3)c2nc1-c1cccc(C)c1F [Example 94, (7R,8aS)-2-(5-(5-(2-Fluoro-3-methylphenyl)-6-methoxy-1H-pyrazolo[4,3-b]pyridin-3-yl)pyridin-2-yl)octahydropyrrolo[1,2-a]pyrazin-7-ol] |  | > 8.22 |  |  |  | < 7.00 | 7.40 to 8.22 | 
17 | COc1cc2[nH]nc(-c3cnn(C45CC4CN(C(=O)CO)C5)c3)c2nc1-c1cccc2c1CCC2 (stereo not shown) [Example 197, 1-(1-(4-(5-(2,3-Dihydro-1H-inden-4-yl)-6-methoxy-1H-pyrazolo[4,3-b]pyridin-3-yl)-1H-pyrazol-1-yl)-3-azabicyclo[3.1.0]hexan-3-yl)-2-hydroxyethan-1-one] |  | > 8.22 | 7.40 to 8.22 | > 8.22 |  |  |  | 
18 | COc1cc2[nH]nc(-c3ccc(N4CCS(=N)(=O)CC4)nc3)c2nc1-c1cccc(C)c1C [Example 86, 4-(5-(5-(2,3-Dimethylphenyl)-6-methoxy-1H-pyrazolo[4,3-b]pyridin-3-yl)pyridin-2-yl)-1-imino-1λ^6-thiomorpholine 1-oxide] |  | > 8.22 |  | > 8.22 |  | < 7.00 |  | 
19 | CC(=O)N1CCN(c2ccc(-c3n[nH]c4cc(OC(F)F)c(-c5cccc(C)c5C)nc34)cn2)CC1 [Example 6, 1-(4-(5-(6-(Difluoromethoxy)-5-(2,3-dimethylphenyl)-1H-pyrazolo[4,3-b]pyridin-3-yl)pyridin-2-yl)piperazin-1-yl)ethan-1-one] |  | > 8.22 |  | > 8.22 |  | < 7.00 |  | 
20 | COc1cc2[nH]nc(-c3ccc(C4CC(=O)N(C)C4)nc3)c2nc1-c1cccc2c1CCC2C#N (single isomer, unassigned) [Example 76, 4-(6-Methoxy-3-(6-(1-methyl-5-oxopyrrolidin-3-yl)pyridin-3-yl)-1H-pyrazolo[4,3-b]pyridin-5-yl)-2,3-dihydro-1H-indene-1-carbonitrile] |  |  | 7.40 to 8.22 |  |  |  | > 8.22 | > 8.22
21 | COc1cc2[nH]nc(-c3ccc(N4CCN(C(C)=O)CC4)nc3)c2nc1-c1cccc(C)c1C [Example 43, 1-(4-(5-(5-(2,3-Dimethylphenyl)-6-methoxy-1H-pyrazolo[4,3-b]pyridin-3-yl)pyridin-2-yl)piperazin-1-yl)ethan-1-one] |  | > 8.22 |  | > 8.22 |  | < 7.00 |  | 
22 | COc1cc2[nH]nc(-c3ccc(C45CC4CN(C(=O)[C@H]4COCCN4C)C5)nc3)c2nc1-c1cccc2c1CCC2 (stereo partly drawn) [Example 192, (1-(5-(5-(2,3-Dihydro-1H-inden-4-yl)-6-methoxy-1H-pyrazolo[4,3-b]pyridin-3-yl)pyridin-2-yl)-3-azabicyclo[3.1.0]hexan-3-yl)((R)-4-methylmorpholin-3-yl)methanone] |  | > 8.22 | 7.40 to 8.22 | > 8.22 |  |  |  | 
23 | COc1cc2[nH]nc(-c3ccc(C4CCN(C(=O)CO)CC4)nc3)c2nc1-c1cccc2c1CC(F)C2 (stereo not shown) [Example 82, 1-(4-(5-(5-(2-Fluoro-2,3-dihydro-1H-inden-4-yl)-6-methoxy-1H-pyrazolo[4,3-b]pyridin-3-yl)pyridin-2-yl)piperidin-1-yl)-2-hydroxyethan-1-one] |  | > 8.22 | 7.40 to 8.22 | > 8.22 |  |  |  | 
